In patent publication US12203125B2, “Device for determining antimicrobial susceptibility of a microorganism” (Q-linea AB, priority 2015, dated 2025):
Converted amounts (≈) assume the structure as drawn.

Key:
Assay type in all cases: cell-based
clinical isolate QM006 [1] = assay: Reference MIC, broth micro-dilution (ISO 20776, turbidity after 16-20 hours); settings: isolate QM006, broth micro-dilution from 0.5 McFarland, 16-20 hours growth
clinical isolate QM006 [2] = assay: Rapid AST: MIC calculated from microphotographs (biomass imaging, 0 to 4 hours) of isolate recovered from blood culture flask below 0.5 McFarland
Experimental: (§1) Dilutions of two different bacterial clinical isolates were seeded into an aerobic blood culture flask (Bactec, Becton Dickinson) at an estimated concentration of either 1 or 10 CFU/ml blood. Before seeding, the BCF had been filled with human blood from healthy donors. Aliquots from the dilution series were plated on agar and grown over night for viable count. Target concentration was 10 or 100 CFU seeded in 0.5 ml per BCF, corresponding to approximately 1 or 10 CFU/ml blood. The seeded BCF were allowed to incubate for 8 hours at 35° C. and a 5 ml aliquot were taken for subsequent AST. Another aliquot from the same BCF was used for determination of viable count after 8 hours' growth in the BCF.
(§2) A 5 ml aliquot of the cultured clinical isolate from the blood culture flask was filtered using a 100 μm filter to remove resin particles from the culture medium. The sample was thereafter mixed with a 10 ml of lysis buffer capable of selectively lysing any non-microbial cells present in the sample, and incubated for a sufficient amount of time for the non-microbial cells to be lysed. The resulting lysate was filtered through a 0.2 μm filter. Liquid components of the lysate (including components of the lysed non-microbial cells) passed through the filter, whereas microbial cells present in the sample were retained on the filter.
(§3) The retained microbial cells were re-suspended in liquid Mueller Hinton broth medium to form a microbial culture preparation, by back-flushing the filter with culture medium (i.e. flowing the culture medium in the opposite direction to filtration). 100 μl aliquots of the microbial culture preparation were then dispensed into wells of a microtiter plate.
(§4) The wells of the microtiter plate contained between 5 and 13 different concentrations of an antibiotic and different antibiotics. A negative control (i.e. comprising a blood sample with no seeded bacteria) and a positive control sample (i.e. an aliquot of the sample from a seeded BCF but into a well with no antimicrobial agent) were also set up at this stage.
(§5) Focus was performed on each inoculated well and each well was read at intervals of 1 hour. A total of 5 images were taken at time points from 0 to 4 hours after the initiation of the AST assay. The degree of microbial growth in each growth condition was monitored by imaging, by measuring the amount of microbial biomass in each well.
(§6) Microphotographs from the different wells were analysed to generate a numerical value of the biomass in the well and this was used as a marker of growth. From the growth a minimal inhibitory concentration was determined and compared to MIC obtained using a reference method, broth micro-dilution. […] A sample was determined to Pass (P) if within +/−1 two-fold dilution from the reference MIC.

clinical isolate QM171 [3] = assay: as above
Experimental: as §1, §2, §3, §4, §5, §6

clinical isolate QM171 [4] = assay: Reference MIC, broth micro-dilution (ISO 20776, turbidity after 16-20 hours); settings: isolate QM171, broth micro-dilution from 0.5 McFarland, 16-20 hours growth
Experimental: as §6

[5] = system: gentamicin resistant E. coli strain; assay: AST by imaging at different starting titers; settings: starting concentration 2×10^6 CFU/ml (Lane B) vs 3×10^5 CFU/ml (Lane A), four hours growth
Text: E. coli grown in blood+BCF media were recovered via a clean-up procedure to remove blood components and only retain viable bacteria in MH-media. Adjustment of the recovered bacteria were made to ensure different titers are used at start of the AST. AST assays were set up to a starting concentration of 3×10^5 CFU/ml (Lane A) and 2×10^6 CFU/ml (Lane B) of a gentamicin resistant E. coli strain. Aliquots of the recovered bacteria were dispensed into a microtiter plate with freeze dried antibiotics at varying concentrations and allowed to grow for four hours before imaging. Shown are microphotographs from a series of different concentration of antibiotics in two-fold dilutions ranging from 64 mg/l to 0.0625 mg/l of gentamicin.

[6] = isolate QM006, experiment repeat no. 1, imaging after 4 h
[7] = isolate QM006, experiment repeat no. 2, imaging after 4 h
[8] = isolate QM006, experiment repeat no. 3, imaging after 4 h
[9] = isolate QM006, experiment repeat no. 4, imaging after 4 h
[10] = isolate QM006, experiment repeat no. 5, imaging after 4 h
[11] = isolate QM006, experiment repeat no. 6, imaging after 4 h
[12] = isolate QM006, experiment repeat no. 7, imaging after 4 h
[13] = isolate QM006, experiment repeat no. 8, imaging after 4 h
[14] = isolate QM006, experiment repeat no. 9, imaging after 4 h
[15] = isolate QM171, experiment repeat no. 1, imaging after 4 h
[16] = isolate QM171, experiment repeat no. 2, imaging after 4 h
[17] = isolate QM171, experiment repeat no. 3, imaging after 4 h
[18] = isolate QM171, experiment repeat no. 4, imaging after 4 h
[19] = isolate QM171, experiment repeat no. 5, imaging after 4 h
[20] = isolate QM171, experiment repeat no. 6, imaging after 4 h
[21] = isolate QM171, experiment repeat no. 7, imaging after 4 h

Row | Molecule | Reference MIC (clinical isolate QM006 [1]) [µg/mL] | MIC calculated from microphotographs (clinical isolate QM006 [2]; [6]) [µg/mL] | MIC calculated from microphotographs (clinical isolate QM006 [2]; [7]) [µg/mL] | MIC calculated from microphotographs (clinical isolate QM006 [2]; [8]) [µg/mL] | MIC calculated from microphotographs (clinical isolate QM006 [2]; [9]) [µg/mL] | MIC calculated from microphotographs (clinical isolate QM006 [2]; [10]) [µg/mL] | MIC calculated from microphotographs (clinical isolate QM006 [2]; [11]) [µg/mL] | MIC calculated from microphotographs (clinical isolate QM006 [2]; [12]) [µg/mL] | MIC calculated from microphotographs (clinical isolate QM006 [2]; [13]) [µg/mL] | MIC calculated from microphotographs (clinical isolate QM006 [2]; [14]) [µg/mL] | MIC calculated from microphotographs (clinical isolate QM171 [3]; [15]) [µg/mL] | MIC calculated from microphotographs (clinical isolate QM171 [3]; [16]) [µg/mL] | MIC calculated from microphotographs (clinical isolate QM171 [3]; [17]) [µg/mL] | MIC calculated from microphotographs (clinical isolate QM171 [3]; [18]) [µg/mL] | MIC calculated from microphotographs (clinical isolate QM171 [3]; [19]) [µg/mL] | MIC calculated from microphotographs (clinical isolate QM171 [3]; [20]) [µg/mL] | MIC calculated from microphotographs (clinical isolate QM171 [3]; [21]) [µg/mL] | Reference MIC (clinical isolate QM171 [4]) [µg/mL] | MIC value at higher bacterial titer compared with lower titer [5]
1 | CO/N=C(\C(=O)N[C@@H]1C(=O)N2C(C(=O)O)=C(COC(C)=O)CS[C@H]12)c1csc(N)n1 [Cefotaxime] | > 8 | > 8 | > 16 | > 16 | > 16 | > 16 | > 16 | > 16 | > 16 | > 16 | 8 (≈ 17.6 µM) | > 16 | > 16 | > 16 | > 16 | 16 (≈ 35.1 µM) | 16 (≈ 35.1 µM) | > 8 | 
2 | CC(C)(O/N=C(\C(=O)N[C@@H]1C(=O)N2C(C(=O)[O-])=C(C[n+]3ccccc3)CS[C@H]12)c1csc(N)n1)C(=O)O [Ceftazidime] | 16 | 8 (≈ 14.6 µM) | 16 (≈ 29.3 µM) | 8 (≈ 14.6 µM) | 8 (≈ 14.6 µM) | 8 (≈ 14.6 µM) | 16 (≈ 29.3 µM) | 8 (≈ 14.6 µM) | 16 (≈ 29.3 µM) | 8 (≈ 14.6 µM) | 2 (≈ 3.66 µM) | 2 (≈ 3.66 µM) | 2 (≈ 3.66 µM) | 2 (≈ 3.66 µM) | 2 (≈ 3.66 µM) | 2 (≈ 3.66 µM) | 1 (≈ 1.83 µM) | 2 | 
3 | C[C@@H](O)[C@H]1C(=O)N2C(C(=O)O)=C(S[C@@H]3CN[C@H](C(=O)N(C)C)C3)[C@H](C)[C@H]12 [Meropenem] | ≤ 0.5 | ≤ 0.5 | ≤ 0.5 | ≤ 0.5 | 1 (≈ 2.61 µM) | ≤ 0.5 | ≤ 0.5 | ≤ 0.5 | ≤ 0.5 | ≤ 0.5 | ≤ 0.5 | ≤ 0.5 | ≤ 0.5 | ≤ 0.5 | ≤ 0.5 | ≤ 0.5 | ≤ 0.5 | 1 | 
4 | Gentamicin | > 16 | 16 | 16 | 16 | 16 | 16 | 16 | 16 | 16 | 16 | 0.5 | 0.5 | 0.5 | 0.5 | 0.5 | 0.5 | 0.25 | ≤ 0.5 | higher MIC value
